Results published in patent US7138361B2, “Herbicidal heterocycles” (E. I. du Pont de Nemours and Company, priority 2000, dated 2006).

Legend:
Assay type in all cases: in vivo
[1] = system: Surinam grass (Brachiaria decumbens); test: Test B postemergence
Summary of the method: (§1)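 Ratings on a 0 to 100 visual scale (100 complete control) compare treated plants with controls 13 to 15 days after application. Treatments were pre- or postemergence sprays of compound in non-phytotoxic solvent with surfactant.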

[2] = system: barnyardgrass (Echinochloa crus-galli); test: Test B postemergence
Summary of the method: as §1

[3] = system: blackgrass (Alopecurus myosuroides); test: Test B postemergence
Summary of the method: as §1

[4] = system: cocklebur (Xanthium strumarium); test: Test B postemergence
Summary of the method: as §1

[5] = system: corn (Zea mays); test: Test B postemergence
Summary of the method: as §1

[6] = system: crabgrass (Digitaria sanguinalis); test: Test B postemergence
Summary of the method: as §1

[7] = system: giant foxtail (Setaria faberii); test: Test B postemergence
Summary of the method: as §1

[8] = system: lambsquarters (Chenopodium album); test: Test B postemergence
Summary of the method: as §1

[9] = system: morning glory (Ipomoea hederacea); test: Test B postemergence
Summary of the method: as §1

[10] = system: pigweed (Amaranthus retroflexus); test: Test B postemergence
Summary of the method: as §1

[11] = system: velvetleaf (Abutilon theophrasti); test: Test B postemergence
Summary of the method: as §1

[12] = system: wheat (Triticum aestivum); test: Test B postemergence
Summary of the method: as §1

[13] = system: wild oat (Avena fatua); test: Test B postemergence
Summary of the method: as §1

[14] = system: Surinam grass (Brachiaria decumbens); test: Test B preemergence
Summary of the method: as §1

[15] = system: barnyardgrass (Echinochloa crus-galli); test: Test B preemergence
Summary of the method: as §1

[16] = system: cocklebur (Xanthium strumarium); test: Test B preemergence
Summary of the method: as §1

[17] = system: corn (Zea mays); test: Test B preemergence
Summary of the method: as §1

[18] = system: crabgrass (Digitaria sanguinalis); test: Test B preemergence
Summary of the method: as §1

[19] = system: giant foxtail (Setaria faberii); test: Test B preemergence
Summary of the method: as §1

[20] = system: lambsquarters (Chenopodium album); test: Test B preemergence
Summary of the method: as §1

[21] = system: morning glory (Ipomoea hederacea); test: Test B preemergence
Summary of the method: as §1

[22] = system: pigweed (Amaranthus retroflexus); test: Test B preemergence
Summary of the method: as §1

[23] = system: rice (Oryza saliva); test: Test B preemergence
Summary of the method: as §1

[24] = system: velvetleaf (Abutilon theophrasti); test: Test B preemergence
Summary of the method: as §1

[25] = system: barnyardgrass (Echinochloa crus-galli); test: Test C flooded paddy test; settings: for Plant response rating, Barnyardgrass: scale 0 to 100 (0 no effect, 100 complete control)
Summary of the method: (§2)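 Visual ratings (0 = no effect, 100 = complete control) were made 12–14 days after treatment, relative to greenhouse controls. Plants in the flooded paddy test were rice, smallflower flatsedge, duck salad and barnyardgrass, treated at the 2-leaf stage.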

[26] = system: duck salad (Heteranthera limosa); test: Test C flooded paddy test; settings: for Plant response rating, Ducksalad: scale 0 to 100 (0 no effect, 100 complete control)
Summary of the method: as §2

[27] = system: Sunflower; test: Test C preemergence; settings: Rate 500 g/ha, visual evaluation after 12 to 14 days
[28] = Rate 125 g/ha, scale 0 to 100, 0 no effect, 100 complete control
[29] = Rate 500 g/ha, scale 0 (no effect) to 100 (complete control), 13 to 15 days
[30] = Preemergence, Rate 500 g/ha, scale 0 to 100, 0 no effect, 100 complete control
[31] = preemergence, Rate 125 g/ha, scale of 0 to 100 where 0 is no effect and 100 is complete control, 13 to 15 days
[32] = Flooded Paddy, Rate 500 g/ha, scale 0 to 100, 0 no effect, 100 complete control
[33] = flooded paddy test, Rate 125 g/ha
[34] = flooded paddy test, Rate 250 g/ha
[35] = flooded paddy test, Rate 62 g/ha, visually evaluated after 12 to 14 days, 0 = no effect, 100 = complete control

SMILES: CCC(C)c1ccn(C2CCN(c3ccc(F)c(C(F)(F)F)c3)C2=O)n1 (stereo not drawn) [Compound 145]
- Plant response rating, Surinam grass [1, 28]: 0
- Plant response rating, Surinam grass [1, 29]: 0
- Plant response rating, Barnyardgrass [2, 28]: 0
- Plant response rating, Barnyardgrass [2, 29]: 90
- Plant response rating, Blackgrass [3, 28]: 0
- Plant response rating, Blackgrass [3, 29]: 0
- Plant response rating, Cocklebur [4, 28]: 0
- Plant response rating, Cocklebur [4, 29]: 0
- Plant response rating, Corn [5, 28]: 0
- Plant response rating, Corn [5, 29]: 0
- Plant response rating, Crabgrass [6, 28]: 0
- Plant response rating, Crabgrass [6, 29]: 0
- Plant response rating, Foxtail, Giant [7, 28]: 0
- Plant response rating, Foxtail, Giant [7, 29]: 40
- Plant response rating, Lambsquarters [8, 28]: 80
- Plant response rating, Lambsquarters [8, 29]: 100
- Plant response rating, Morningglory [9, 28]: 0
- Plant response rating, Morningglory [9, 29]: 0
- Plant response rating, Pigweed [10, 28]: 0
- Plant response rating, Pigweed [10, 29]: 80
- Plant response rating, Velvetleaf [11, 28]: 0
- Plant response rating, Velvetleaf [11, 29]: 30
- Plant response rating, Wheat [12, 28]: 0
- Plant response rating, Wheat [12, 29]: 0
- Plant response rating, Wild Oat [13, 28]: 0
- Plant response rating, Wild Oat [13, 29]: 0
- Plant response rating, Surinam grass [14, 30]: 60
- Plant response rating, Surinam grass [14, 31]: 0
- Plant response rating, Barnyardgrass [15, 30]: 100
- Plant response rating, Barnyardgrass [15, 31]: 70
- Plant response rating, Cocklebur [16, 30]: 0
- Plant response rating, Cocklebur [16, 31]: 0
- Plant response rating, Corn [17, 30]: 0
- Plant response rating, Corn [17, 31]: 0
- Plant response rating, Crabgrass [18, 30]: 100
- Plant response rating, Crabgrass [18, 31]: 100
- Plant response rating, Foxtail, Giant [19, 30]: 100
- Plant response rating, Foxtail, Giant [19, 31]: 100
- Plant response rating, Lambsquarters [20, 30]: 100
- Plant response rating, Lambsquarters [20, 31]: 100
- Plant response rating, Morningglory [21, 30]: 0
- Plant response rating, Morningglory [21, 31]: 0
- Plant response rating, Pigweed [22, 30]: 100
- Plant response rating, Pigweed [22, 31]: 100
- Plant response rating, Rice [23, 30]: 80
- Plant response rating, Rice [23, 31]: 0
- Plant response rating, Velvetleaf [24, 30]: 0
- Plant response rating, Velvetleaf [24, 31]: 0
- Barnyardgrass plant response rating [25, 32]: 100
- Plant response rating, Barnyardgrass [25, 33]: 65
- Plant response rating, Barnyardgrass [25, 34]: 85
- Plant response rating (scale 0 to 100), Barnyardgrass [25, 35]: 30
- Ducksalad plant response rating [26, 32]: 80
- Plant response rating, Ducksalad [26, 33]: 25
- Plant response rating, Ducksalad [26, 34]: 80
- Plant response rating (scale 0 to 100), Ducksalad [26, 35]: 20
- Plant response rating (0 to 100), Sunflower [27]: 50
